According to paper PMC5522622 (Drug delivery and translational research, 2017):
Entries after “also recorded” stand apart in the source; their conditions may differ. Blank lines part the entries; values can stand above or below the molecule they belong to.

Columns and labels:
[1] = In vitro drug release of DoxQ in PBS with 10% FBS at 37 °C, HPLC; type: in vitro ADME
[2] = test system: MDCK-MDR cells (P-gp positive); experiment: Fluorescence imaging of doxorubicin uptake by MDCK-MDR cells; type: cell-based, canine
[3] = test system: triple-negative murine breast cancer cell line; experiment: Cytotoxicity by resazurin blue assay; type: cell-based; settings: 72 h
adult rat cardiomyocytes = experiment: Adult rat cardiomyocyte viability by trypan blue assay; type: cell-based; settings: 18 h; for cell death: 10 µM, trypan blue; for cell death, concentration dependence: 1, 5 and 10 µM
[4] = test system: human cardiomyocytes (RL-14); experiment: RL-14 cell viability by MTT assay; type: cell-based; settings: 10 µM, 24 h, MTT
[5] = test system: reactive oxygen species in RL-14 cells; experiment: Reactive oxygen species levels by DCF assay in RL-14 cells; type: cell-based, human; settings: 10 µM, 24 h
BNP = BNP mRNA expression in RL-14 cells by real-time PCR; type: cell-based, human; settings: 10 µM, 24 h
GST-A1 = GST-A1 mRNA expression in RL-14 cells by real-time PCR; type: cell-based, human; settings: 10 µM, 24 h
Water solubility = type: physicochemical; settings: stated in words, no test described
CYP3A4 = CYP3A4 (Homo sapiens, UniProt P08684)
Chain of CYP3A4 (P08684 whole entry): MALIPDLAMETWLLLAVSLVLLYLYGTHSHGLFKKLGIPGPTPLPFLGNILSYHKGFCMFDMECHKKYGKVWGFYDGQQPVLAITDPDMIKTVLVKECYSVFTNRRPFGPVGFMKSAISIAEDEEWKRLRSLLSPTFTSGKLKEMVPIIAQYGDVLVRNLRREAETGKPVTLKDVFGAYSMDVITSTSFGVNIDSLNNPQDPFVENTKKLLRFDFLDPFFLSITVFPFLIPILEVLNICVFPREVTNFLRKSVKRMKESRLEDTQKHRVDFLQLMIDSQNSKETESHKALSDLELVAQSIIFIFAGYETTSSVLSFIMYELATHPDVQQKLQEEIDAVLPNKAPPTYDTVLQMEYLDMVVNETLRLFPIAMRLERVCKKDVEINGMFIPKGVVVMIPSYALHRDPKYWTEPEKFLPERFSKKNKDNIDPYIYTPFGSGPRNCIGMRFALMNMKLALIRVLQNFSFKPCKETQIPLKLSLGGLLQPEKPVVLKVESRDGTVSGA

CYP1B1 [6] = settings: RL-14 cells
CYP1B1 [7] = settings: MROD and EROD, RL-14 cells
α-MHC = α-MHC mRNA expression in RL-14 cells by real-time PCR; settings: 10 µM, 24 h
β-MHC = β-MHC mRNA expression in RL-14 cells by real-time PCR; settings: 10 µM, 24 h
[8] = RL-14 cell viability by MTT assay; type: cell-based, human; settings: human, RL-14 cardiomyocyte cells
HO-1 = HO-1 mRNA expression in RL-14 cells by real-time PCR; type: cell-based, human; settings: 10 µM, 24 h

SMILES: COc1cccc2c1C(=O)c1c(O)c3c(c(O)c1C2=O)CC(O)(C(=O)CO)CC3OC1CC(NC(=O)CNC(=O)Oc2ccc(-c3oc4cc(O)cc(O)c4c(=O)c3O)cc2O)C(O)C(C)O1 (stereo not shown) [DoxQ, quercetin-Gly-Dox]
duration of in vitro release of doxorubicin from the conjugate ([1]; Fig. 3): more than 4 days
release t1/2 of quercetin from the conjugate ([1]; aqueous medium, second-order kinetics): approximately 100 h
fluorescence signal in cells compared to free doxorubicin ([2]; 50 nM, Fig. 4): higher
drug uptake (fluorescence signal, ImageJ) compared to free doxorubicin ([2]; after 5-min treatment, Fig. 5a): significantly enhanced
IC50 relative to doxorubicin alone or a mixture of doxorubicin and quercetin [3]: more than twofold higher
cytotoxicity compared to doxorubicin or mixture [3]: substantially less toxic
IC50 ([3]; given in words): micromolar range
antioxidant capacity compared to quercetin alone (Antioxidant assay kit; 1 and 10 mM): significantly higher
antioxidant capacity compared to a mixture of doxorubicin and quercetin (Antioxidant assay kit; 10 and 50 mM): significantly higher
antioxidant effect compared to doxorubicin (Antioxidant assay kit; all concentrations studied (1, 10, 50)): significantly higher
cell death (adult rat cardiomyocytes): ~ 17%
cell death, concentration dependence (adult rat cardiomyocytes): dose-response effect
cell viability [4]: 77%
prevention of the cytotoxicity mediated by doxorubicin [4]: ~ 25%
difference in ROS level versus free doxorubicin [5]: ~ 234%
inhibition of induction of BNP mRNA expression compared to doxorubicin (BNP): 6 folds
lowering of GST-A1 mRNA expression in comparison to doxorubicin (GST-A1): 1.5 folds
water solubility (Water solubility): very poor
CYP3A4 inhibition (percentage relative to ketoconazole), in words (CYP3A4; 0.01, 0.1, 1, 10, 50 and 100 µM): inhibited CYP3A4 at all the concentrations tested
concentration with the highest CYP3A4 inhibition (CYP3A4; range tested 0.01-100 µM): 10 nM
CYP1B1 mRNA expression, in words (CYP1B1 [6]): reversed these effects
inhibition of CYP1B1 mRNA expression compared to doxorubicin (CYP1B1 [6]; Fig. 15a): more than 4 folds
CYP1B1 catalytic activity, in words (CYP1B1 [7]): significantly inhibited; also recorded: reversed these effects
inhibition of induction of α-MHC mRNA expression compared to doxorubicin (α-MHC): 1.5 folds
inhibition of induction of β-MHC mRNA expression compared to doxorubicin (β-MHC): 2.5 folds

BNP mRNA expression versus control, in words (BNP): induced
HO-1 expression lower compared to cells treated with DoxQ (HO-1): 1 fold
CYP1B1 mRNA expression, in words (CYP1B1 [6]): induced
CYP1B1 catalytic activity, in words (CYP1B1 [7]): induced
α-MHC mRNA expression versus control, in words (α-MHC): induced
β-MHC mRNA expression versus control, in words (β-MHC): induced
SMILES: COc1cccc2c1C(=O)c1c(O)c3c(c(O)c1C2=O)C[C@@](O)(C(=O)CO)C[C@@H]3O[C@H]1C[C@H](N)[C@H](O)[C@H](C)O1 [doxorubicin, Doxorubicin, reference compound]
cell death (adult rat cardiomyocytes): ~ 22%
cell death, concentration dependence (adult rat cardiomyocytes): dose-response effect
viability at 24 h, 10 µM [8]: 52%
